The record followed here is BindingDB's records for doi:10.1016/s0960-894x(02)00627-3 (Keio University, 2002).

Assay [1] has as its target alpha-L-fucosidase (Bos taurus). Nature of the assay: Binding affinity against alpha-L-fucosidase in bovine kidney was determined.
Assay [2] shares this target. Nature of the assay: Inhibition of bovine kidney alpha-L-fucosidase.
Assay [3] has the same target. Briefly: Binding affinity against alpha-L-fucosidase in bovine kidney was determined. The source holds these as a separate data set.

The structures appear in SMILES notation.

In assay [1], `CC1CC(NCCc2ccccc2)C(O)C(O)C1O` [(1S,2S,3R)-4-Methyl-6-phenethylamino-cyclohexane-1,2,3-triol] returned an inhibition constant Ki of 0.032 µM. For the same compound, the IC50 in assay [2] is 0.24 µM.
With `CCCCCCCCCNC1CC(C)C(O)C(O)C1O` [(1S,2S,3R)-4-Methyl-6-nonylamino-cyclohexane-1,2,3-triol], the Ki in assay [1] turned out to be 0.11 µM. The IC50 in assay [2] worked out at 0.24 µM.
Consider `CCCCNC1=NC2CC(C)C(O)C(O)C2O1` [(6R,7S,7aS)-2-Butylamino-5-methyl-3a,4,5,6,7,7a-hexahydro-benzooxazole-6,7-diol], for which the IC50 in assay [2] came to 140 µM.
Take `CCNC1CC(C)C(O)C(O)C1O` [(1R,2S,3S)-4-Ethylamino-6-methyl-cyclohexane-1,2,3-triol]: in assay [1], affinity was put at a Ki of 0.18 µM. In assay [2], the midpoint of inhibition, the IC50, lay at 21 µM.
In turn, `CC1CC2N=C(NCc3ccccc3)OC2C(O)C1O` [(6R,7S,7aS)-2-Benzylamino-5-methyl-3a,4,5,6,7,7a-hexahydro-benzooxazole-6,7-diol] returned a half-maximal inhibitory concentration (IC50) in assay [2] of 72 µM.
Consider `CC1CC(NCc2ccccc2)C(O)C(O)C1O` [(1R,2S,3S)-4-Benzylamino-6-methyl-cyclohexane-1,2,3-triol], for which affinity in assay [3] was put at a Ki of 0.069 µM. The compound also registered an IC50 in assay [2] of 1 µM.
Consider `CC1CC2N=C(Nc3ccccc3)OC2C(O)C1O` [(6R,7S,7aS)-5-Methyl-2-phenylamino-3a,4,5,6,7,7a-hexahydro-benzooxazole-6,7-diol], for which, in assay [2], the IC50 was determined as 7.6 µM. In other words, the single-digit micromolar range.
`CCCCCCCNC1CC(C)C(O)C(O)C1O` [(1R,2S,3S)-4-Heptylamino-6-methyl-cyclohexane-1,2,3-triol] came in with an inhibition constant (Ki) in assay [1] of 0.048 µM. Besides, the IC50 in assay [2] came out at 0.27 µM.
In the case of `CCCCNC1CC(C)C(O)C(O)C1O` [(1R,2S,3S)-4-Butylamino-6-methyl-cyclohexane-1,2,3-triol], in assay [1], affinity was put at a Ki of 0.074 µM. Also, 0.92 µM corresponded to half-maximal inhibition in assay [2] (IC50).
